# Laboratory results published in ChEMBL document CHEMBL5338809, “Fragment-Based Discovery of Azocyclic Alkyl Naphthalenesulfonamides as Keap1-Nrf2 Inhibitors for Acute Lung Injury Treatment” (J Med Chem, 2023).
# Activity calls are given as the source filed them. No cut-off for these calls is given here.
# Key:
# [1] = Cytotoxicity against mouse peritoneal macrophages assessed as reduction in cell viability incubated for 24 hrs by Cell titer-blue assay; format: toxicity, cell-based, Peritoneal macrophage
# Peritoneal macrophage [2] = test: Antiinflammatory activity in mouse peritoneal macrophages assessed as fold reduction in LPS-induced TNFalpha level at 10 uM incubated for 4 hrs by ELISA method; format: functional
# [3] = biological target: Keap1/Nrf2 (Homo sapiens) (UniProt Q16236+Q14145); test: Binding affinity to human Keap1-Nrf2 protein-protein interaction assessed as dissociation constant (Kd2) incubated for 60 mins by fluorescent polarization assay
# [4] = Aqueous solubility of the compound in PBS at pH 7 at 2 mg incubated for 24 hrs by HPLC-UV analysis; format: physicochemical
# [5] = Aqueous solubility of the compound in PBS at pH 7.4 at 2 mg incubated for 24 hrs by HPLC-UV analysis; format: physicochemical
# [6] = Aqueous solubility of the compound in PBS at pH 2 at 2 mg incubated for 24 hrs by HPLC-UV analysis; format: physicochemical
# Peritoneal macrophage [7] = test: Antiinflammatory activity in mouse peritoneal macrophages assessed as reduction in LPS-induced IL6 level at 10 uM incubated for 4 hrs by ELISA method; format: functional, cell-based
# Keap1/Nrf2 (Homo sapiens), sequence (Q14145 whole entry, looked up): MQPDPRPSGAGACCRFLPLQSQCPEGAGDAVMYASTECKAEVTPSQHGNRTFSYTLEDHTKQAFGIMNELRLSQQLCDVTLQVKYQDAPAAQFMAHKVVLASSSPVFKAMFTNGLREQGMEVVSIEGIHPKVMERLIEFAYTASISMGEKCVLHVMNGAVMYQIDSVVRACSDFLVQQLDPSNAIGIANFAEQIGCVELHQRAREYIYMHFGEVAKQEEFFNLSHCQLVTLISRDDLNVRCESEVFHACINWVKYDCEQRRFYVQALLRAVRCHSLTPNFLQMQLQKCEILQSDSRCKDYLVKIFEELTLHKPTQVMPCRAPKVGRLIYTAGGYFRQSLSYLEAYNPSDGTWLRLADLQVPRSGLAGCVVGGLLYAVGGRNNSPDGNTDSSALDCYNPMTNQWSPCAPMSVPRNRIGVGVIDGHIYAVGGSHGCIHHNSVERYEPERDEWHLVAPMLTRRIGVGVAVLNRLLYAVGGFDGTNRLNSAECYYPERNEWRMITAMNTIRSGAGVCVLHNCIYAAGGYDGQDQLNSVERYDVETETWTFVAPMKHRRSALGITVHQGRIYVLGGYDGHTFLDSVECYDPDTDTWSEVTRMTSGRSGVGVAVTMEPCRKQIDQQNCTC
# Keap1/Nrf2 (Homo sapiens), sequence (Q16236 whole entry, looked up): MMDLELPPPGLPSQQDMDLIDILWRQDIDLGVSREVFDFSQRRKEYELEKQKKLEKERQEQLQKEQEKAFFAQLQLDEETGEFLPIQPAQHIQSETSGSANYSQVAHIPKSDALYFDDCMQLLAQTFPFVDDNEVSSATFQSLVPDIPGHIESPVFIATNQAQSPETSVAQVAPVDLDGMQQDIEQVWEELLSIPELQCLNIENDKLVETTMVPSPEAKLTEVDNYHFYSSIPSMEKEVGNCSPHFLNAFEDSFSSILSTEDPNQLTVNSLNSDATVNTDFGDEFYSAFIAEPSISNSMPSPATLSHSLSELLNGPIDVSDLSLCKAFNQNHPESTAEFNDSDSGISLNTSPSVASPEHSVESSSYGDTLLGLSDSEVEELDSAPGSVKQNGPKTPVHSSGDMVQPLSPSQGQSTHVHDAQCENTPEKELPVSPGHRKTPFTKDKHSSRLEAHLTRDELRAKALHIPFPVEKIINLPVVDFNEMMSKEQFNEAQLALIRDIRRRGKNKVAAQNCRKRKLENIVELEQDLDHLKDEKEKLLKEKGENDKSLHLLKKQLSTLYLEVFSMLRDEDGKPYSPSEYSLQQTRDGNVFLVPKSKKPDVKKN
K [3],solubility at 24 h [4],solubility at 24 h [5],solubility at 24 h [6],SMILES,CC50 at 24 h [1],fold change (FC) (Peritoneal macrophage [2]),Activity (Peritoneal macrophage [7])
–,162 µg/mL,160 µg/mL,311 µg/mL,CC(=O)O.COc1ccc(S(=O)(=O)N(CC(N)=O)c2ccc(N(CC(N)=O)S(=O)(=O)c3ccc(NC(=O)[C@H]4CCN4)cc3)c3ccccc23)cc1,–,–,–
430 nM,–,–,–,COc1ccc(S(=O)(=O)N(CC(N)=O)c2ccc(N(CC(N)=O)S(=O)(=O)c3ccc(NC(=O)C4CCCNC4)cc3)c3ccccc23)cc1 (centres undefined),> 100 µM,<=0.5,–
–,484 µg/mL,283 µg/mL,1170 µg/mL,COc1ccc(S(=O)(=O)N(CC(N)=O)c2ccc(N(CC(N)=O)S(=O)(=O)c3ccc(NC(=O)[C@H]4CCN4)cc3)c3ccccc23)cc1.Cl,–,–,–
270 nM,–,–,–,COc1ccc(S(=O)(=O)N(CC(N)=O)c2ccc(N(CC(N)=O)S(=O)(=O)c3ccc(NC(=O)[C@@H]4CCCN4)cc3)c3ccccc23)cc1,> 100 µM,<=0.5,Active
250 nM,–,–,–,COc1ccc(S(=O)(=O)N(CC(N)=O)c2ccc(N(CC(N)=O)S(=O)(=O)c3ccc(NC(=O)[C@H]4CCNC4)cc3)c3ccccc23)cc1,> 100 µM,<=0.5,Active
270 nM,–,–,–,COc1ccc(S(=O)(=O)N(CC(N)=O)c2ccc(N(CC(N)=O)S(=O)(=O)c3ccc(NC(=O)[C@@H]4CCCNC4)cc3)c3ccccc23)cc1,> 100 µM,<=0.5,Active
–,256 µg/mL,137 µg/mL,672 µg/mL,Br.COc1ccc(S(=O)(=O)N(CC(N)=O)c2ccc(N(CC(N)=O)S(=O)(=O)c3ccc(NC(=O)[C@H]4CCN4)cc3)c3ccccc23)cc1,–,–,–
240 nM,–,–,–,COc1ccc(S(=O)(=O)N(CC(N)=O)c2ccc(N(CC(N)=O)S(=O)(=O)c3ccc(NC(=O)[C@@H]4CCNC4)cc3)c3ccccc23)cc1,> 100 µM,<=0.5,Active
280 nM,–,–,–,COc1ccc(S(=O)(=O)N(CC(N)=O)c2ccc(N(CC(N)=O)S(=O)(=O)c3ccc(NC(=O)C4CCNC4)cc3)c3ccccc23)cc1 (centres undefined),> 100 µM,<=0.5,Active
650 nM,–,–,–,COc1ccc(S(=O)(=O)N(CC(N)=O)c2ccc(N(CC(N)=O)S(=O)(=O)c3ccc(NC(=O)[C@@H]4CCN4)cc3)c3ccccc23)cc1,> 100 µM,<=0.5,–
400 nM,–,–,–,COc1ccc(S(=O)(=O)N(CC(N)=O)c2ccc(N(CC(N)=O)S(=O)(=O)c3ccc(NC(=O)[C@H]4CCCNC4)cc3)c3ccccc23)cc1,> 100 µM,<=0.5,–
300 nM,–,–,–,COc1ccc(S(=O)(=O)N(CC(N)=O)c2ccc(N(CC(N)=O)S(=O)(=O)c3ccc(NC(=O)[C@H]4CCCN4)cc3)c3ccccc23)cc1,> 100 µM,<=0.5,Active
260 nM,–,–,–,COc1ccc(S(=O)(=O)N(CC(N)=O)c2ccc(N(CC(N)=O)S(=O)(=O)c3ccc(NC(=O)C4CCN4)cc3)c3ccccc23)cc1 (centres undefined),> 100 µM,<=0.5,Active

# The next lines start with the compound.
SMILES,K [3],solubility at 24 h [4],solubility at 24 h [5],solubility at 24 h [6],CC50 at 24 h [1],fold change (FC) (Peritoneal macrophage [2]),Activity (Peritoneal macrophage [7])
COc1ccc(S(=O)(=O)N(CC(N)=O)c2ccc(N(CC(N)=O)S(=O)(=O)c3ccc(NC(=O)[C@@H](N)Cc4ccccc4)cc3)c3ccccc23)cc1,820 nM,–,–,–,> 100 µM,<=0.5,–
COc1ccc(S(=O)(=O)N(CC(N)=O)c2ccc(N(CC(N)=O)S(=O)(=O)c3ccc(NC(=O)CN)cc3)c3ccccc23)cc1,250 nM,–,–,–,> 100 µM,<=0.5,–
COc1ccc(S(=O)(=O)N(CC(N)=O)c2ccc(N(CC(N)=O)S(=O)(=O)c3ccc(NC(=O)[C@H](N)Cc4ccccc4)cc3)c3ccccc23)cc1,1170 nM,–,–,–,> 100 µM,<=0.5,–
COc1ccc(S(=O)(=O)N(CC(N)=O)c2ccc(N(CC(N)=O)S(=O)(=O)c3ccc(NC(=O)[C@H](N)C(C)C)cc3)c3ccccc23)cc1,810 nM,–,–,–,> 100 µM,<=0.5,–
COc1ccc(S(=O)(=O)N(CC(N)=O)c2ccc(N(CC(N)=O)S(=O)(=O)c3ccc(NC(=O)[C@@H](N)C(C)C)cc3)c3ccccc23)cc1,400 nM,–,–,–,> 100 µM,<=0.5,–
COc1ccc(S(=O)(=O)N(CC(N)=O)c2ccc(N(CC(N)=O)S(=O)(=O)c3ccc(NC(=O)[C@@H](N)CSC)cc3)c3ccccc23)cc1,440 nM,–,–,–,> 100 µM,<=0.5,–
COc1ccc(S(=O)(=O)N(CC(N)=O)c2ccc(N(CC(N)=O)S(=O)(=O)c3ccc(NC(=O)[C@H]4CCN4)cc3)c3ccccc23)cc1.O=C(O)/C=C\C(=O)O,–,32.3 µg/mL,34.7 µg/mL,46.3 µg/mL,–,–,–
CNCC(=O)Nc1ccc(S(=O)(=O)N(CC(N)=O)c2ccc(N(CC(N)=O)S(=O)(=O)c3ccc(OC)cc3)c3ccccc23)cc1,250 nM,–,–,–,> 100 µM,<=0.5,Active
COC[C@@H](N)C(=O)Nc1ccc(S(=O)(=O)N(CC(N)=O)c2ccc(N(CC(N)=O)S(=O)(=O)c3ccc(OC)cc3)c3ccccc23)cc1,280 nM,–,–,–,> 100 µM,<=0.5,–
COc1ccc(S(=O)(=O)N(CC(N)=O)c2ccc(N(CC(N)=O)S(=O)(=O)c3ccc(NC(=O)CCCCN)cc3)c3ccccc23)cc1,270 nM,–,–,–,> 100 µM,<=0.5,–
COc1ccc(S(=O)(=O)N(CC(N)=O)c2ccc(N(CC(N)=O)S(=O)(=O)c3ccc(NC(=O)[C@H]4CCN4)cc3)c3ccccc23)cc1.O=C(O)CCC(=O)O,–,60.6 µg/mL,65.6 µg/mL,145 µg/mL,–,–,–
COc1ccc(S(=O)(=O)N(CC(N)=O)c2ccc(N(CC(N)=O)S(=O)(=O)c3ccc(NC(=O)[C@H](C)N)cc3)c3ccccc23)cc1,240 nM,–,–,–,> 100 µM,<=0.5,Active
CC[C@@H](N)C(=O)Nc1ccc(S(=O)(=O)N(CC(N)=O)c2ccc(N(CC(N)=O)S(=O)(=O)c3ccc(OC)cc3)c3ccccc23)cc1,320 nM,–,–,–,> 100 µM,<=0.5,Active
COCC(=O)Nc1ccc(S(=O)(=O)N(CC(N)=O)c2ccc(N(CC(N)=O)S(=O)(=O)c3ccc(OC)cc3)c3ccccc23)cc1,550 nM,–,–,–,> 100 µM,<=0.5,–
CCC[C@@H](N)C(=O)Nc1ccc(S(=O)(=O)N(CC(N)=O)c2ccc(N(CC(N)=O)S(=O)(=O)c3ccc(OC)cc3)c3ccccc23)cc1,590 nM,–,–,–,> 100 µM,<=0.5,–
COc1ccc(S(=O)(=O)N(CC(N)=O)c2ccc(N(CC(N)=O)S(=O)(=O)c3ccc(NC(=O)CCN)cc3)c3ccccc23)cc1,440 nM,–,–,–,> 100 µM,<=0.5,–
COc1ccc(S(=O)(=O)N(CC(N)=O)c2ccc(N(CC(N)=O)S(=O)(=O)c3ccc(NC(=O)[C@@H](C)N)cc3)c3ccccc23)cc1,230 nM,–,–,–,> 100 µM,<=0.5,Active
COC[C@H](N)C(=O)Nc1ccc(S(=O)(=O)N(CC(N)=O)c2ccc(N(CC(N)=O)S(=O)(=O)c3ccc(OC)cc3)c3ccccc23)cc1,330 nM,–,–,–,> 100 µM,<=0.5,Active
COc1ccc(S(=O)(=O)N(CC(N)=O)c2ccc(N(CC(N)=O)S(=O)(=O)c3ccc(NC(=O)[C@H]4CCN4)cc3)c3ccccc23)cc1.O=C(O)C(F)(F)F,–,292 µg/mL,275 µg/mL,423 µg/mL,–,–,–
COc1ccc(S(=O)(=O)N(CC(N)=O)c2ccc(N(CC(N)=O)S(=O)(=O)c3ccc(NC(=O)CCCN)cc3)c3ccccc23)cc1,630 nM,–,–,–,> 100 µM,<=0.5,–
CC[C@H](N)C(=O)Nc1ccc(S(=O)(=O)N(CC(N)=O)c2ccc(N(CC(N)=O)S(=O)(=O)c3ccc(OC)cc3)c3ccccc23)cc1,530 nM,–,–,–,> 100 µM,<=0.5,–
